Measured values as given in patent US20210205264A1, “USE OF DELTA-TOCOTRIENOL FOR TREATING CANCER” (H. LEE MOFFITT CANCER CENTER & RESEARCH INSTITUTE INC., priority 2018, published 2021).
Peptide text beside a SMILES is read from it. * marks the point of attachment. Cbz = O=C(OCc1ccccc1)*

Columns and labels:
β-catenin = β-catenin immunofluorescence and Western blot in CCSCs; format: cell-based, human; conditions: MG132 25 μM, 3-methyladenine 10 mM, caspase 3 inhibitor 20 μM, calpain II inhibitor 25 μM
From the text: FIGS. 9A, 9B, 9C, and 9D show quantification of β-catenin in the nucleus and cytoplasm of CCSCs with confocal microscopy (FIGS. 9A & 9B) after treatment with vehicle, aspirin, d-T3, and aspirin+d-T3.
As noted above, stability of the β-catenin complex by inactivation of APC leads to stabilization and nuclear translocation of β-catenin and to transcriptional activation of β-catenin target genes such as c-Myc and cyclin D1. […] Furthermore, d-T3 inhibition of CCSCs is associated with the downregulation of β-catenin, c-Myc, cyclin D1, and survivin as measured by Western blot in CCSCs (FIG. 9D).

CCSCs [1] = assay: Annexin V FITC/PI flow cytometry apoptosis assay in CCSCs; format: cell-based, human; conditions: CCSCs
Experimental: (§1) FIGS. 10A, 10B, 10C, and 10D show induction of apoptosis measured by flow cytometry (FIG. 10A) and confocal microscopy (FIG. 10B) in CCSCs after treatment with vehicle, aspirin, d-T3, and aspirin+d-T3. Effect of BID inhibitor on apoptosis in CCSCs after treatment with aspirin or d-T3 (FIG. 10C). Induction oft-BID in CCSCs after treatment with vehicle, aspirin, d-T3, and aspirin+d-T3 (FIG. 10D).
(§2) d-T3 can induce selective killing of CCSCs through the BH3 interacting-domain death agonist (BID). […] It should be noted that these in vitro results are consistent with the in vivo observation of the selective induction of apoptosis in APC mutant colon crypt cells in the ApcMin/+ mice but not in the normal intestinal cells of the AOM rat CRC model or NOD/SCID mice. […] Although the proapoptotic activity of d-T3 is a consistent observation of d-T3 anticancer activity in all of the published reports, the mechanism by which d-T3 induces apoptosis is poorly understood. Apoptotic death is regulated by the death receptor (extrinsic) and mitochondrial (intrinsic) pathways. These 2 pathways crosstalk under certain conditions through caspase-8-mediated cleavage of BID, a BH3-only Bcl-2 family member. The activated and truncated BID (tBID) then engages the intrinsic pathway for efficient apoptosis induction. To obtain preliminary information regarding the mechanisms by which d-T3 induces apoptosis in CCSCs, the activation of BID was measured after 24-hour treatment with vehicle, aspirin (5 mM), d-T3 (50 μM), and aspirin combined with d-T3 in CCSCs by Western blotting.

MiaPaCa-2 cell = MiaPaCa-2 cell viability at increasing concentrations; format: cell-based, human; conditions: increasing concentrations
hCAS [2] = target: T1, hCAS (Homo sapiens, UniProt P55060); assay: Competitive affinity-isolation of hCAS in MiaPaCa-2 cell lysate; format: binding; conditions: excess free compound
T1 construct: endogenous in cells; host or cells: MiaPaCa-2 human pancreatic cancer cells
T1 sequence (P55060 1-971): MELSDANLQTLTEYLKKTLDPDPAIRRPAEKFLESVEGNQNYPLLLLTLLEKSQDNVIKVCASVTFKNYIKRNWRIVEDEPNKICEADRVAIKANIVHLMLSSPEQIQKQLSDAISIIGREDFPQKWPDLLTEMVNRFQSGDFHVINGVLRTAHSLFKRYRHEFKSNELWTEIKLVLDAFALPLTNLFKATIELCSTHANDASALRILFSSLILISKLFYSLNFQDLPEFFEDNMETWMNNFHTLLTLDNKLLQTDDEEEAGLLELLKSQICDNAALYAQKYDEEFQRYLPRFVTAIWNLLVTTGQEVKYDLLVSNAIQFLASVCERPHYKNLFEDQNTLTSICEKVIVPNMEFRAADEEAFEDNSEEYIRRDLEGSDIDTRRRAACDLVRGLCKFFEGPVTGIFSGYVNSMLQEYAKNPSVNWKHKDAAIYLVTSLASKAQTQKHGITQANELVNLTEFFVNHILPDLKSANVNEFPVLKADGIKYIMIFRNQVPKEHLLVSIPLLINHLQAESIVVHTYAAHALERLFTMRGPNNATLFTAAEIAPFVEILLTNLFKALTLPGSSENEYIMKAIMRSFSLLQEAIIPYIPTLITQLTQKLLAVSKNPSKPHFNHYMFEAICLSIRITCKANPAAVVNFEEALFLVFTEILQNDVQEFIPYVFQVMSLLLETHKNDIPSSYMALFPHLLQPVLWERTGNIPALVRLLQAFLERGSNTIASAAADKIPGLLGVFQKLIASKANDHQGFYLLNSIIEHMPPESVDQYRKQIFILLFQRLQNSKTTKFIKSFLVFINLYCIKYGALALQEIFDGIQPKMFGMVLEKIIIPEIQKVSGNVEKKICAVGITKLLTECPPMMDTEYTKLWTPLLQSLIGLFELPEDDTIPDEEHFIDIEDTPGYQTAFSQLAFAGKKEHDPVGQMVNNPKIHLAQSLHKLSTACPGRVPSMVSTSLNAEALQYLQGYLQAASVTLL
Experimental: This experiment used a synthetic biotin-δ-tocotrienol conjugate (shown below to inhibit growth activity of cultured MiaPaca-2 human pancreatic cancer cells) to confirm affinity-isolation of hCAS. To confirm that δ-T3 binds to hCAS in intact cells, biotinylated δ-T3 (B-δ-T3) was prepared by chemically coupling the —OH group of δ-T3 to the —COOH of biotin using a PEG-iodoactamide linker (FIG. 18). […] Affinity-isolation of hCAS was inhibited in the presence of free δ-tocotrienol but not with free δ-tocopherol.

ApcMin/+ mice = assay: Adenoma (intestinal polyp) formation in ApcMin/+ mice; format: in vivo
From the text: FIGS. 1A and 1B show the number of intestinal polyps (FIG. 1A) and H&E staining of polyps (FIG. 1B) in ApcMin/+ mice treated with vehicle (V), aspirin (Asp), d-T3, and combination of aspirin+d-T3. Black dots in FIG. 1B point out polyps in the intestine. Although substantial preclinical evidence exists regarding the preventive activity of d-T3 and g-T3 in various types of cancers, there is no report of d-T3 prevention of colon cancer despite evidence of activity in colon cell lines and xenograft models. […] Treatment with aspirin alone reduced adenoma formation by 38%, and treatment with d-T3 alone reduced adenoma formation by 44%, while treatment with the combination of aspirin and d-T3 reduced adenoma formation by 58%.

[3] = tested on: intestinal stem cells of ApcMin/+ mice; assay: Caspase 3 staining of intestinal crypts in ApcMin/+ mice; format: in vivo; conditions: small intestinal crypts of ApcMin/+ mice
From the text: Although substantial preclinical evidence exists regarding the preventive activity of d-T3 and g-T3 in various types of cancers, there is no report of d-T3 prevention of colon cancer despite evidence of activity in colon cell lines and xenograft models. […] Treatment with aspirin alone reduced adenoma formation by 38%, and treatment with d-T3 alone reduced adenoma formation by 44%, while treatment with the combination of aspirin and d-T3 reduced adenoma formation by 58%.

CCSCs [4] = assay: miRNA profiles in CCSCs; format: cell-based, human; conditions: 24-hour treatment; aspirin 5 mM, d-T3 10 μM
From the text: Given the results, and without intending to be bound by any theory, it appears that the induction of apoptosis can be one mechanism by which d-T3 prevents CRC and augments CRC prevention activity. BID knockout can diminish this effect. The biorepository as well as materials generated from studies can be used to explore other mechanisms of d-T3 action such as anti-inflammatory, mediation of the immune system, anti-angiogenesis, and alterations in metabolism. To this end, miRNA profiles were conducted that are altered with d-T3, aspirin, and d-T3 with aspirin treatment in CCSCs. To discover early miRNAs that are likely to influence activity, these cells were deliberately treated with doses of these agents at a duration when there were no phenotypic changes of apoptosis.

colon polyps = conditions: patients with stage I-III colon cancer following treatment; 27% without aspirin; cited from earlier work
BID = assay: Activation of BID (tBID) by Western blotting in CCSCs; format: cell-based, human; conditions: 24-hour treatment; aspirin 5 mM, d-T3 50 μM
Experimental: as §1
as §2, with “These 2 pathways crosstalk under certain conditions through caspase-8-mediated cleavage of BID, a BH3-only Bcl-2 family member. The activated and truncated BID (tBID) then engages the intrinsic pathway for efficient apoptosis induction.” left out

human CCSCs = assay: Orthotopic (cecum) model of luciferase expressing human CCSCs in NOD-SCID mice; format: in vivo
Experimental: FIGS. 8A, 8B, 8C, and 8D show growth of cecal tumor volume (FIGS. 8A & 8B) and liver metastasis score (FIGS. 8C & 8D) in orthotopic model of CCSCs after treatment with vehicle, aspirin, d-T3, and aspirin+d-T3.
In vivo model of human CCSC were developed by implanting the stably transfected luciferase expressing CCSCs in the cecum of NOD-SCID mice. In this model, tumor growth, metastasis, and survival are monitored twice weekly by IP injection of luciferin (150 mg/kg body weight) and imaged using the IVIS 200 Bioluminescence imaging system. […] These findings strongly indicate that d-T3 targets CCSCs and enhances the ability of aspirin to target these cells.

hCAS [5] = target: T1, hCAS; assay: Streptavidin bead capture of hCAS from treated MiaPaCa-2 cells; format: binding; conditions: MiaPaCa-2 cells treated 24 hours
Experimental: To confirm that δ-T3 binds to hCAS in intact cells, biotinylated δ-T3 (B-δ-T3) was prepared by chemically coupling the —OH group of δ-T3 to the —COOH of biotin using a PEG-iodoactamide linker (FIG. 18).
MiaPaCa-2 human pancreatic cancer cells were treated for 24 hours with biotin alone (B), B-δ-T3 or B-TOCOPH. The cells were then lysed, and the lysates incubated with streptavidin beads, and the captured proteins processed for Western blotting.

Compound: CC(C)C[C@@H](C=O)NC(=O)[C@H](CC(C)C)NC(=O)[C@H](CC(C)C)NC(=O)OCc1ccccc1 [MG132, reference compound] (Cbz-Leu-Leu-Leu-aldehyde)
- effect on d-T3 induced degradation of β-catenin (β-catenin): inhibited

Compound: COc1ccc(S(=O)(=O)NCCCC(=O)Nc2ccc(Sc3ccc(N)cc3)cc2)cc1 [BI-6C9]
- effect of BID inhibitor on induction of apoptosis by aspirin (CCSCs [1]): not
- effect of BID inhibitor on induction of apoptosis by d-T3 (CCSCs [1]): negates the induction of apoptosis

Compound: Cc1cc(O)cc2c1O[C@](C)(CCC[C@H](C)CCC[C@H](C)CCCC(C)C)CC2 [TOCOPH, δ-Tocopherol, reference compound]
- effect on cell viability (MiaPaCa-2 cell): least effect
- affinity-isolation of hCAS / hCAS binding to biotin-T3 in presence of free competitor (hCAS [2]): does not
- affinity-isolation of hCAS / hCAS binding to biotin-T3 in presence of free competitor (hCAS [2]; listed as δ-tocopherol): not

Compound: Cn1cnc(N)c2ncnc1-2 [3-methyladenine, reference compound]
- effect on d-T3 induced degradation of β-catenin (β-catenin): inhibited

Compound: CC(=O)Oc1ccccc1C(=O)O [aspirin, reference compound]
- reduced adenoma formation (ApcMin/+ mice): 38%
- apoptosis detected by caspase 3 staining [3]: minimal to no staining
- down-regulation of miRNAs compared with vehicle (number) (CCSCs [4]): 4 miRNAs
- up-regulation of miRNAs compared with vehicle (number) (CCSCs [4]): 2 miRNAs
- rate of polyp formation at 1-year colonoscopy (colon polyps): 17%
- activation of tBID (BID): did not
- growth of human CRC stem cells (cecal tumor) (human CCSCs): inhibited
- metastases of human CRC stem cells (human CCSCs; liver metastasis): inhibited

Compound: O=C(O)CCCC[C@@H]1SC[C@@H]2NC(=O)N[C@@H]21 [biotin]
- hCAS bound by streptavidin beads from lysates of treated cells (hCAS [5]): not
